According to patent US20230416329A1, “A PEPTIDE WITH DISULFIDE BONDS AND INHIBITORY ACTIVITY AGAINST SERINE PROTEASES, DERIVED HYBRID PEPTIDES THEREOF, AND USES THEREOF” (INSTITUTE OF MATERIA MEDICA , CHINESE ACADEMY OF MEDICAL …, priority 2020, published 2023):
Read-outs that look alike come from different tables or passages of the source. Each block holds one compound with its values, some of them ahead of it. Bridge positions count the residues as written; N and C are the ends. Square brackets hold non-standard residues; d marks the D form. Peptide text beside a SMILES is read from it. Abu = CC[C@H](N)C(=O)O

Target: porcine pancreatic elastase (Sus scrofa, UniProt P00772)
Sequence (P00772 27-266): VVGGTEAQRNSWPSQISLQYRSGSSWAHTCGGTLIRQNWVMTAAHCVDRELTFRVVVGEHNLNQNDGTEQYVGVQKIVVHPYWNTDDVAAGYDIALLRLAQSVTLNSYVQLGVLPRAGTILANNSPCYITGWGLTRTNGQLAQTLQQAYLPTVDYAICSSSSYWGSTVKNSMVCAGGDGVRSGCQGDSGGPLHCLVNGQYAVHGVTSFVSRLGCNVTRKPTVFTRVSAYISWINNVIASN
Test: Elastase inhibitory activity of peptides (AAApNA hydrolysis; IC50, Ki, residual activity)
Assay type: biochemical
Conditions: for IC50 / Residual activity of elastase: elastase 0.5 μM, AAApNA 1 mM
Description: The inhibition constants of various synthetic active peptide inhibitors (molecular scaffolds) against seine proteases were measured. The substrates N-succinyl-Ala-Ala-Pro-Phe-p-nitroaniline (AAPFpNA), Nα—Benzoyl-L-arginine-4-nitroaniline hydrochloride (BApNA) and N-succinyl-[…] (AAApNA) are used in competitive binding reaction to determine the inhibitory activities against α-chymotrypsin, bovine trypsin, and porcine pancreatic elastase, respectively. Experiments for α-chymotrypsin and bovine trypsin inhibition were measured in 20 mM CaCl2, 50 mM Tris-HCl buffer (pH 7.8), and that for porcine elastase inhibition was measured in 50 mM Tris-HCl buffer (pH 8.0). The concentration of the peptide was measured using optical density (OD) at 280 nm. The Michaelis constant (Km) of the enzyme hydrolysis substrate is calculated from the initial rate of substrate hydrolysis at 405 nm. The absorbance value of the substrate was measured at 405 nm after complete hydrolysis. All data were processed using nonlinear regression.
• (1) Added a total 198 μL of reaction buffer (20 mM CaCl2, 50 mM Tris-HCl (pH 8.0)) into the 96 well plate, followed by preheating at 37° C. for 15 min. Then added 2 μL of different concentrations of substrates (pNA, dissolved in DMSO), and mixed by centrifugation at 500 rpm for 1 min. Finally, the plate was incubated at 37° C. for 30 min, and the absorbance value at 405 nm was measured. In the 200 μL of reaction system, the final concentrations of pNA were 0, 0.025, 0.05, 0.075, 0.1, 0.125, 0.15, 0.175, and 0.2 mM, respectively. Make three repetitions for each concentration and plot the OD405 m value with pNA concentration to obtain the standard curve. • (2) Added a total 190 μL of reaction buffer (20 mM CaCl2, 50 mM Tris-HCl (pH 8.0)) and 8 μL of 4.375 μM elastase into the 96 well plate, followed by preheating at 37° C. for 5 min. Then added 2 μL of different concentrations of substrates (AAApNA, dissolved in DMSO), and mixed by centrifugation at 500 rpm for 1 min. Finally, the plate was incubated at 37° C. for 30 min, and the absorbance value at 405 nm was measured. In the 200 μL of reaction system, the final concentrations of AAApNA were 0, 0.125, 0.166, 0.2, 0.25, 0.33, 0.6, 0.75, and 1.25 mM, respectively. Make three repetitions for each concentration and plot the OD405 nm value with time to obtain the corresponding curve. Divide the slope of the curve by the slope of the standard curve and the enzyme concentration to obtain the initial velocity V0 (mM/(min*mM protein). Plot the initial velocity V0 with the concentration of substrate AAApNA using Prism software, and the Michaelis constant Km value of elastase hydrolyzing AAApNA was obtained.
• (1) Added a total 190 μL of different concentrations of peptides (ECs) against elastase and reaction buffer (20 mM CaCl2, 50 mM Tris-HCl buffer (pH 8.0)) into the pre-cold 96 well plate, followed by preheating at 37° C. for 5 min and centrifugated at 500 rpm for 1 min and allowed to stand for 4 minutes. Then added 8 μL of 12.5 μM elastase and incubated at 37° C. for 10 min and centrifugated at 500 rpm for 1 min and allowed to stand for 9 minutes. Finally, added 2 μL of 100 mM AAApNA, and mixed by centrifugation at 500 rpm for 1 min. The plate was incubated at 37° C. for 60 min, and the absorbance value at 405 nm was measured. Three repetitions were made, and only reaction buffer and substrate were added in the blank control as the minimum absorption value (Min OD405 nm); Only reaction buffer, enzyme and substrate were added in the negative control as the maximum absorption value (Max OD405 nm). • (2) In the 200 μL of reaction system, the final concentrations of elastase and AAApNA were 0.5 μM and 1 mM, respectively. • (3) Data statistics
Residual activity of enzyme (%)=(1−(Max OD405 nm−Sample OD405 nm)/(Max OD405 nm−Min OD405 nm))*100 […]

IC50: > 50 µM
Compound: CC[C@H](C)[C@@H]1NC(=O)[C@H](CO)NC(=O)[C@H](C)NC(=O)[C@H]([C@@H](C)O)NC(=O)[C@@H](NC(=O)[C@@H](N)CC(C)C)CSSC[C@@H](C(=O)N[C@@H](CCCNC(=N)N)C(=O)O)NC(=O)[C@H](CCC(N)=O)NC(=O)[C@@H]2CCCN2C(=O)[C@@H]2CCCN2C1=O [EC20] (H-LCTASIPPQCR-OH; disulfide 2-10; N-terminus and C-terminus assumed)

IC50: 0.4 µM
Residual activity of elastase (peptide 0.001 μM): 100.1 ± 1.0%
Residual activity of elastase (peptide 0.01 μM): 99.8 ± 0.3%
Residual activity of elastase (peptide 0.1 μM): 92.0 ± 6.8%
Residual activity of elastase (peptide 0.2 μM): 70.8 ± 4.3%
Residual activity of elastase (peptide 0.4 μM): 51.6 ± 1.7%
Residual activity of elastase (peptide 1 μM): 20.4 ± 1.2%
Residual activity of elastase (peptide 10 μM): 2.4 ± 0.2%
Residual activity of elastase (peptide 100 μM): 0.0 ± 0.0%
Residual activity of elastase (peptide 1000 μM): −0.2 ± 0.2%
Ki (read-out: Ki): 110 nM
Compound: CC[C@H](C)[C@@H]1NC(=O)[C@@H]2CCCN2C(=O)[C@@H]2CCCN2C(=O)[C@H]([C@@H](C)CC)NC(=O)[C@H](CO)NC(=O)[C@H](C)NC(=O)[C@H]([C@@H](C)O)NC(=O)[C@@H](NC(=O)[C@@H](N)C(C)C)CSSC[C@@H](C(=O)N[C@@H](CCC(N)=O)C(=O)O)NC1=O [EC22] (H-VCTASIPPICQ-OH; disulfide 2-10; C-terminus assumed)

Residual activity of elastase (peptide 0.001 μM): 103.0 ± 2.2%
Residual activity of elastase (peptide 0.01 μM): 97.8 ± 4.8%
Residual activity of elastase (peptide 0.1 μM): 76.8 ± 3.1%
Residual activity of elastase (peptide 0.2 μM): 56.4 ± 2.9%
Residual activity of elastase (peptide 0.4 μM): 40.8 ± 2.0%
Residual activity of elastase (peptide 0.6 μM): 23.7 ± 0.2%
Residual activity of elastase (peptide 1 μM): 15.1 ± 0.9%
Residual activity of elastase (peptide 10 μM): 1.5 ± 0.3%
Residual activity of elastase (peptide 100 μM): −0.2 ± 0.1%
Residual activity of elastase (peptide 1000 μM): −0.2 ± 0.1%
Ki (read-out: Ki against elastase): 70 nM
Compound: CC[C@H](C)[C@H](N)C(=O)N[C@H]1CSSC[C@@H](C(=O)N[C@@H](CCC(N)=O)C(=O)O)NC(=O)[C@H]([C@@H](C)CC)NC(=O)[C@@H]2CCCN2C(=O)[C@@H]2CCCN2C(=O)[C@H]([C@@H](C)CC)NC(=O)[C@H](CO)NC(=O)[C@H](C)NC(=O)[C@H]([C@@H](C)O)NC1=O [EC23] (H-ICTASIPPICQ-OH; disulfide 2-10; C-terminus assumed)

Residual activity of elastase (peptide 0.001 μM): 105.9 ± 2.2%
Residual activity of elastase (peptide 0.01 μM): 102.0 ± 2.9%
Residual activity of elastase (peptide 0.1 μM): 92.6 ± 2.7%
Residual activity of elastase (peptide 0.5 μM): 72.7 ± 4.4%
Residual activity of elastase (peptide 1 μM): 47.5 ± 0.7%
Residual activity of elastase (peptide 2 μM): 28.5 ± 0.4%
Residual activity of elastase (peptide 6 μM): 8.9 ± 0.4%
Residual activity of elastase (peptide 10 μM): 5.9 ± 0.4%
Residual activity of elastase (peptide 100 μM): 0.1 ± 0.1%
Residual activity of elastase (peptide 1000 μM): 0.1 ± 0.0%
Compound: CC[C@H](C)[C@@H]1NC(=O)[C@@H]2CCCN2C(=O)[C@@H]2CCCN2C(=O)[C@H]([C@@H](C)CC)NC(=O)[C@H](CO)NC(=O)[C@H](C)NC(=O)[C@H]([C@@H](C)O)NC(=O)[C@@H](NC(=O)[C@@H](N)Cc2ccc(O)cc2)CSSC[C@@H](C(=O)N[C@@H](CCC(N)=O)C(=O)O)NC1=O [EC29] (H-YCTASIPPICQ-OH; disulfide 2-10; C-terminus assumed)

IC50: > 50 µM
Compound: CC[C@H](C)[C@@H]1NC(=O)CNC(=O)[C@@H](N)CSSC[C@@H](C(=O)N[C@@H](CCC(N)=O)C(=O)O)NC(=O)[C@H]([C@@H](C)CC)NC(=O)[C@@H]2CCCN2C(=O)[C@@H]2CCCN2C(=O)[C@H]([C@@H](C)CC)NC(=O)[C@H](CO)NC(=O)[C@H](C)NC(=O)[C@H]([C@@H](C)O)NC(=O)[C@H](C)NC1=O [EC30] (H-CGIATASIPPICQ-OH; disulfide 1-12)

More lines, now with the values behind:

Compound: CC(C)C[C@H](N)C(=O)N[C@H]1CSSC[C@@H](C(=O)N[C@@H](CCCNC(=N)N)C(=O)O)NC(=O)[C@H]([C@@H](C)O)NC(=O)[C@@H]2CCCN2C(=O)[C@@H]2CCCN2C(=O)[C@H](CC(N)=O)NC(=O)[C@H](CO)NC(=O)[C@H](C)NC(=O)[C@H]([C@@H](C)O)NC1=O [EC28] (H-LCTASNPPTCR-OH; disulfide 2-10)
IC50: > 50 µM

Compound: CC[C@@H]1NC(=O)[C@H]([C@@H](C)CC)NC(=O)CNC(=O)[C@@H](N)CSSC[C@@H](C(=O)N[C@@H](CCC(N)=O)C(=O)O)NC(=O)[C@H]([C@@H](C)CC)NC(=O)[C@@H]2CCCN2C(=O)[C@@H]2CCCN2C(=O)[C@H]([C@@H](C)CC)NC(=O)[C@H](CO)NC(=O)[C@H](C)NC(=O)[C@H]([C@@H](C)O)NC1=O [EC31] (H-CGI[Abu]TASIPPICQ-OH; disulfide 1-12)
IC50: > 50 µM

Compound: CC[C@H](C)[C@@H]1NC(=O)CNC(=O)[C@@H](N)CSSC[C@@H](C(=O)N[C@@H](CCC(N)=O)C(=O)O)NC(=O)[C@H]([C@@H](C)CC)NC(=O)[C@@H]2CCCN2C(=O)[C@@H]2CCCN2C(=O)[C@H]([C@@H](C)CC)NC(=O)[C@H](CO)NC(=O)[C@H](C)NC(=O)[C@H]([C@@H](C)O)NC(=O)[C@H](CO)NC1=O [EC34] (H-CGISTASIPPICQ-OH; disulfide 1-12)
IC50: > 50 µM

Compound: CC[C@H](C)[C@@H]1NC(=O)CNC(=O)[C@@H](N)CSSC[C@@H](C(=O)N[C@@H](CCC(N)=O)C(=O)O)NC(=O)[C@H]([C@@H](C)CC)NC(=O)[C@@H]2CCCN2C(=O)[C@@H]2CCCN2C(=O)[C@H]([C@@H](C)CC)NC(=O)[C@H](CO)NC(=O)[C@H](C)NC(=O)[C@H]([C@@H](C)O)NC(=O)[C@H](Cc2ccccc2)NC1=O [EC36] (H-CGIFTASIPPICQ-OH; disulfide 1-12)
IC50: > 50 µM

Compound: CC[C@H](C)[C@@H]1NC(=O)CNC(=O)[C@@H](N)CSSC[C@@H](C(=O)N[C@@H](CCC(N)=O)C(=O)O)NC(=O)[C@H]([C@@H](C)CC)NC(=O)[C@@H]2CCCN2C(=O)[C@@H]2CCCN2C(=O)[C@H]([C@@H](C)CC)NC(=O)[C@H](CO)NC(=O)[C@H](C)NC(=O)[C@H]([C@@H](C)O)NC(=O)[C@H](CC(N)=O)NC1=O [EC38] (H-CGINTASIPPICQ-OH; disulfide 1-12; C-terminus assumed)
IC50: 1 µM

Compound: CC[C@H](C)[C@@H]1NC(=O)CNC(=O)[C@@H](N)CSSC[C@@H](C(=O)N[C@@H](CCC(N)=O)C(=O)O)NC(=O)[C@H]([C@@H](C)CC)NC(=O)[C@@H]2CCCN2C(=O)[C@@H]2CCCN2C(=O)[C@H]([C@@H](C)CC)NC(=O)[C@H](CO)NC(=O)[C@H](C)NC(=O)[C@H]([C@@H](C)O)NC(=O)[C@H](CCC(N)=O)NC1=O [EC39] (H-CGIQTASIPPICQ-OH; disulfide 1-12)
IC50: > 50 µM

Compound: CC[C@H](C)[C@@H]1NC(=O)CNC(=O)[C@@H](N)CSSC[C@@H](C(=O)N[C@@H](CCC(N)=O)C(=O)O)NC(=O)[C@H]([C@@H](C)CC)NC(=O)[C@@H]2CCCN2C(=O)[C@@H]2CCCN2C(=O)[C@H]([C@@H](C)CC)NC(=O)[C@H](CO)NC(=O)[C@H](C)NC(=O)[C@H]([C@@H](C)O)NC(=O)[C@H](Cc2c[nH]cn2)NC1=O [EC40] (H-CGIHTASIPPICQ-OH; disulfide 1-12)
IC50: > 50 µM
